These results are taken from PMC2963310 (Science (New York, N.Y.), 2009).

SMILES strings stand for the structures.

For assay [1], the target named is T1, LGC-40 (Caenorhabditis elegans, UniProt Q22741).
T1 sequence (Q22741 23-494): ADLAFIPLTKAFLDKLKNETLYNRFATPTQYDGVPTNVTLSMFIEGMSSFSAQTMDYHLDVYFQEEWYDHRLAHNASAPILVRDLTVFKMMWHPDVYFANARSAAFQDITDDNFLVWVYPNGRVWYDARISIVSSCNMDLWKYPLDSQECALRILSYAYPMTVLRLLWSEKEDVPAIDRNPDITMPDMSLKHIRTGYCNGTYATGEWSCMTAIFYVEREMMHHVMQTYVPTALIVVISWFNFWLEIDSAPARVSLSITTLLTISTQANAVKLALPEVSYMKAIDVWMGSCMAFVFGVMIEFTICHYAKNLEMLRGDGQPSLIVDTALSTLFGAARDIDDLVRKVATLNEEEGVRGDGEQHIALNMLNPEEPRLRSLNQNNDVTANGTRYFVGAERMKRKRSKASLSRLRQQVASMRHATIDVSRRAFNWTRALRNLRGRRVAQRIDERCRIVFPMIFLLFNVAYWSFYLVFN
Kind of assay: Inhibition of choline-evoked LGC-40 currents in Xenopus oocytes. Type of assay: cell-based.

In assay [2] the target is T1, LGC-40. The class given is cell-based. Conditions: for estimated Hill coefficient, LGC-40: dose-response data fitted to the Hill equation.
In assay [3] the target is T2, LGC-53 (Caenorhabditis elegans, UniProt H2KYN9).
Assay [4] deals with T2, LGC-53. As to the kind of experiment: cell-based.
Assay [5] deals with T2, LGC-53. As to the kind of experiment: Inhibition of dopamine-evoked LGC-53 currents in Xenopus oocytes. The class given is cell-based.
The target of a further assay is LGC-55 (Caenorhabditis elegans, UniProt G5EEC1). The class given is cell-based.
[6] abbreviates: dose-response data fitted to the Hill equation.
The mark [7] stands for this setting: panel: serotonin, dopamine, octopamine, tyramine, histamine.

For the molecule `C[N+]1(C)CCOC(O)(c2ccc(-c3ccc(C4(O)C[N+](C)(C)CCO4)cc3)cc2)C1` (stereo not shown) [Hemicholinium-3, hemicholinium-3], it took 2 µM to reach half-maximal inhibition against LGC-40 [1] (IC50).

Consider `CC(=O)OCC[N+](C)(C)C` [acetylcholine], for which, on LGC-40 [2], a half-maximal response (EC50) required 87 µM and the “estimated Hill coefficient, LGC-40” value was 1.5.

Take `CN1[C@@H]2CC[C@H]1C[C@@H](OC(=O)C(CO)c1ccccc1)C2` (stereo partly shown) [atropine]: the “sensitivity of LGC-40 currents to antagonist (in words)” value on LGC-40 [1] (currents evoked by 2 μM choline) is on record as “relatively insensitive”.

For `C[N+](C)(C)CCO` [choline], on LGC-40 [2], the 50% effective concentration (EC50) (usually the midpoint of the concentration-response curve) turned out to be 3.4 µM and the “estimated Hill coefficient, LGC-40” value is 1.9.

For `COc1cc2c3cc1Oc1cc(ccc1O)C[C@@H]1c4c(cc(OC)c(O)c4Oc4ccc(cc4)C[C@@H]3N(C)CC2)CC[N+]1(C)C` [d-tubocurarine], on LGC-40 [1], it took 8.3 µM to reach half-maximal inhibition (IC50).

As to `NCCc1ccc(O)c(O)c1` [dopamine], the “estimated Hill coefficient, LGC-53” value at LGC-53 [3] (setting [6]) is on record as 1.9. Further, the “efficacy of activation of LGC-53 among the biogenic amines tested (in words)” value at LGC-53 [3] (setting [7]) is on record as “highest efficacy”. Also, the EC50 at LGC-53 [4] turned out to be 4.4 µM.

For `NCCc1c[nH]c2ccc(O)cc12` [serotonin], at LGC-40 [2], a half-maximal response (EC50) required 905 µM and the “estimated Hill coefficient, LGC-40” value is 2.7.

Turning to `O=C(CCCN1CCC2(CC1)C(=O)NCN2c1ccccc1)c1ccc(F)cc1` [spiperone], at LGC-53 [5], the midpoint of inhibition, the IC50, lay at 38 µM.

Regarding `NCCc1ccc(O)cc1` [tyramine], the midpoint of the response at LGC-55, the EC50, lay at 6 µM. Moreover, at LGC-55 (setting [6]), the “estimated Hill coefficient, LGC-55” value is given as 1.8. Besides, the “efficacy of activation of LGC-55 among the biogenic amines tested (in words)” value on LGC-55 (setting [7]) is reported as “highest efficacy”.
